According to PubChem BioAssay (NCI):
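Tested at 5 concentrations; 48 h exposure; 96-well plates; endpoints linearly interpolated, else capped at highest concentration. TGI: concentration producing complete growth inhibition.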

Experiments:
Assay in all cases: NCI anticancer screen, dose series, 48 h
MDA-MB-231 breast = tested on: MDA-MB-231 breast
DU-145 prostate = tested on: DU-145 prostate
SF-539 CNS = tested on: SF-539 CNS
HL-60(TB) leukemia = tested on: HL-60(TB) leukemia
SN12C renal = tested on: SN12C renal
TK-10 renal = tested on: TK-10 renal
OVCAR-4 ovarian = tested on: OVCAR-4 ovarian
RPMI-8226 leukemia = tested on: RPMI-8226 leukemia
T-47D breast = tested on: T-47D breast
NCI-H522 lung = tested on: NCI-H522 lung

Row | Compound | TGI (MDA-MB-231 breast) [µM] | TGI (DU-145 prostate) [µM] | TGI (SF-539 CNS) [µM] | TGI (HL-60(TB) leukemia) [µM] | TGI (SN12C renal) [µM] | TGI (TK-10 renal) [µM] | TGI (OVCAR-4 ovarian) [µM] | TGI (RPMI-8226 leukemia) [µM] | TGI (T-47D breast) [µM] | TGI (NCI-H522 lung) [µM]
1 | O=c1cccc2n1CC1CNCC2C1 (stereo unspecified) | > 100 | > 100 | > 100 | > 100 | > 100 | > 100 | > 100 | > 100 | – | –
2 | C[C@@](Br)(C(=O)O)[C@H](Br)C(=O)O | > 100 | > 100 | – | > 100 | > 100 | > 100 | > 100 | > 100 | > 100 | –
3 | COc1ccccc1Cn1c2c(c3cc(O)ccc31)C(=O)c1ccccc1C2=O | 38.2 | > 100 | 57.6 | > 100 | > 100 | > 100 | 12 | 45.7 | – | –
4 | Cn1c2ccccc2c2c3c(=O)[nH][nH]c(=O)c3c3c4ccccc4n(C)c3c21 | > 100 | > 100 | > 100 | – | > 100 | > 100 | > 100 | > 100 | > 100 | > 100
5 | CC(=O)OC1COC(N2c3ccccc3[C@@H]3CCc4c([nH]c5ccccc45)[C@@H]32)C(OC(C)=O)C1OC(C)=O (mixture of isomers) | > 100 | > 100 | – | – | > 100 | > 100 | > 100 | > 100 | – | > 100
6 | Cc1ccc(S(=O)(=O)N2CCc3cc(O)c([N+](=O)[O-])cc32)cc1 | > 100 | > 100 | > 100 | > 100 | > 100 | > 100 | > 100 | – | > 100 | > 100
7 | CCC(C)C(NC(=O)C(CCCC[N+](=N)N)NC(=O)C(CCCC[N+](=N)N)NC(=O)c1ccc(OC)cc1)C(=O)NC(CCCC[N+](=N)N)C(=O)N1CCCC1C(=O)NC(CCCCN)C(=O)NC(CC(C)C)C(N)=O (stereo unspecified) | > 100 | > 100 | > 100 | – | > 100 | > 100 | > 100 | > 100 | > 100 | > 100
8 | CC1=NN(c2cccc(Cl)c2)C2(C1=Cc1ccc(N(C)C)cc1)C(Cl)C(=O)N2c1nc2ccccc2s1 (stereo unspecified) | > 100 | > 100 | > 100 | > 100 | – | > 100 | > 100 | > 100 | > 100 | 43.1
9 | CC12CCC(=O)[C@@]1(C)CCCC2=O (stereo partly specified) | > 100 | > 100 | > 100 | > 100 | > 100 | > 100 | > 100 | – | > 100 | > 100
10 | C=C1C[C@@H]2CC[C@@]34CC5O[C@H]6C(O[C@H]7CC[C@H](CC(=O)O[C@@H]8[C@@H](C)[C@@H]9O[C@@H]%10C[C@]%11(C[C@@H]%12O[C@]%13(C[C@H](C)[C@@H]%14O[C@@H]%15CC(C(COC(C)=O)OC(C)=O)O[C@@H]%15C[C@@H]%14O%13)C[C@H](C)[C@@H]%12O%11)O[C@@H]%10C[C@@H]9O[C@H]8CC8O[C@@H](CC[C@@H]1O2)C[C@@H](C)C8(O)CO)O[C@@H]7[C@@H]6O3)[C@H]5O4 (stereo partly specified) | > 1 | > 1 | – | – | > 1 | > 1 | > 1 | > 1 | > 0.924 | 0.417
11 | CCc1nc2c([nH]1)C(=O)c1ccccc1C2=O | – | – | > 100 | 94.7 | > 100 | > 100 | > 100 | – | – | > 100
12 | O/N=C/[C@H]1COC2(CCCCC2)O1 | > 100 | > 100 | – | – | > 100 | > 100 | > 100 | > 100 | – | –
13 | COC(=O)c1ccc2cc(O)ccc2c1 | > 100 | > 100 | > 100 | – | > 100 | > 100 | > 100 | > 100 | > 100 | > 100
14 | CCC1(c2ccc(OC)c(OC)c2)CCN2C(=O)C(O)CC21 (stereo unspecified) | > 100 | > 100 | – | – | > 100 | > 100 | > 100 | – | > 100 | > 100
15 | CC(=O)Nc1ccc2c(c1)nc1c3ccccc3ccn21 | > 100 | > 100 | > 100 | > 100 | > 100 | > 100 | > 100 | – | > 100 | > 100
16 | CC1=CC(O)CC(C)(C)C1/C=C/C(C)=C/C=C/C(C)=C/C=C/C=C(C)/C=C/C=C(C)/C=C/C1=C(C)CC(O)CC1(C)C (stereo unspecified) | 30.1 | > 100 | – | > 100 | – | > 100 | 66.9 | > 100 | 44.7 | 30
17 | CC(C)(C)C#CI1OC(=O)c2ccccc21 | 34 | 17.8 | 7.13 | – | 19 | 15.8 | 8.08 | 5.11 | 14.7 | 3.82
18 | O=c1ccn([C@@H]2C=C(CO)[C@@H](O)[C@H]2O)c(=O)[nH]1 | – | – | > 625 | > 625 | > 625 | – | > 625 | – | – | > 625
19 | COc1ccc(CCn2ccc(=O)c(O)c2C)cc1OC | 6.2 | 43 | 73.9 | 81.9 | – | > 100 | – | 96.9 | 85.7 | –
20 | O=C(/C=C/CC(O)(c1ccccc1)c1ccccc1)Nc1ccccc1Cl | – | – | – | > 100 | > 100 | > 100 | > 100 | > 100 | – | > 100
21 | Cc1cccc2c(N)c3cccc(C(=O)NCC[N+](C)(C)[O-])c3nc12 | 75.1 | > 100 | 36.7 | > 100 | > 100 | > 100 | 28.2 | > 100 | > 100 | –
22 | CN(C)CN1C(=O)/C(=N\n2c(-c3ccncc3)n[nH]c2=S)c2ccccc21 | > 100 | 81.6 | 52.4 | 37 | > 100 | > 100 | 45.2 | – | > 100 | 45.1
23 | Oc1ccc(C[C@@H]2CN[C@H](Cc3ccc(O)c(Br)c3)CN2)cc1 | > 100 | > 100 | > 100 | > 100 | > 100 | > 100 | > 100 | – | > 100 | > 100
24 | CCOP(=O)(COCCn1nc(Br)c(=O)[nH]c1=O)OCC | > 100 | > 100 | > 100 | > 100 | > 100 | – | – | > 100 | > 100 | > 100
